Laboratory results from patent publication US9464120B2, “Compositions for treatment of celiac disease” (ImmusanT, Inc., priority 2008, dated 2016).
Like-named read-outs stand apart in the source and are kept apart here. Square brackets hold non-standard residues; d marks the D form. Peptide text beside a SMILES is read from it. pGlu = O=C1CC[C@@H](C(=O)O)N1

How the values were obtained:
[1] = Pharmacokinetics after bolus intradermal injection in an adult rat; format: in vivo
Method: To improve their chemical stability and increase resistance to exopeptidases, peptides were synthesised as acetate salts of “capped” N-pyroglutamate, C-amide: NPL001 (SEQ ID NO:228), NPL002 (SEQ ID NO:229) and NPL003 (SEQ ID NO:230) 15mers or 16mers with glutamate at sites predicted to be deamidated by tTG. Indeed, capping extended the half-lives of peptides from 10-12 minutes for free peptides: NPL033, NPL038, and NPL034 (SEQ ID NOs:13, 320 and 321) after bolus intradermal injection of 0.9 mg in 0.1 ml in an adult rat to 26-28 minutes with N-pyroglutamate and C-amidation (SEQ ID NOs:228, 229 and 230) or 19-24 minutes with N-acetylation and C-amidation (SEQ ID NOs:231, 232, and 233), (see Table 4).

[2] = system: gluten peptide-specific T cells in PBMC from HLA-DQ2+ celiac disease donors; assay: IFNγ ELISpot of PBMC collected on day 6 after oral gluten challenge; format: cell-based, human
[3] = system: gluten peptide-specific T cells in PBMC from HLA-DQ2+ celiac disease donors; conditions: day-6 PBMC, cited from earlier work
[4] = system: CD4+ T cells specific for NPL001; assay: Proliferation of transferred CFSE labelled NPL001-specific CD4+ T cells after subcutaneous administration (adoptive transfer model); format: in vivo; conditions: previous mouse studies
Source text: The interaction between NPL001 (SEQ ID NO:228) and cognate T cells in vivo has been modelled by developing transgenic Black-6 mice expressing functional HLA-DR3 and -DQ2 (but not murine MHC Class II molecules) on antigen presenting cells (APC) who are transferred 3×10^6 CFSE labelled CD4^+ T cells specific for NPL001 (Chen Z., et al., 2006). The donor mouse (HH8-1) is transgenic for the NPL001-specific T cell receptor and human CD4 expressed on T cells, and also expresses HLA-DR3 DQ2 on APC. Overall 96% of the CD4^+ T cells in the HH8-1 mouse are clonal and specific for NPL001 (results not shown).
Four days after subcutaneous administration (in the hind foot hock) of an equimolar mixture of NPL001, NPL002 and NPL003 in 50 μl saline, spleen, gut-draining mesenteric lymph nodes (MLN) and the local draining popliteal lymph nodes (PLN) are harvested. Isolated mononuclear cells are stained for hCD4, and the T-cell receptor α- and β-chains expressed on the HH8-1 NPL001-specific T cells (Vα8 and Vβ8). Proliferation of transferred CFSE labelled cells is measured as the % CFSE^pos cells having undergone one or more division, as indicated by dilution of CFSE staining.

| Molecule | AUC area under the curve (bioavailability) ([1]; rat, in vivo, 0.9 mg) | T1/2 half life ([1]; rat, in vivo, 0.9 mg) | half-life ([1]; rat, in vivo, 0.9 mg, T1/2 half life) | bioactivity after lysine-substitution of the central PQPEQPF sequence ([2]; 32 μg/ml, after wheat (n=7), barley (n=9) or rye challenge (n=10)) | effect of anti-HLA-DQ / -DR preincubation on IFNγ ELISpot response ([2]; PBMC from HLA DQA1*05 DQB1*02 homozygotes and heterozygotes, data not shown) | IFNγ ELISpot response relative to tTG-treated gliadin in 3/17 donors ([3]; 3/17 donors) | Median IFNγ ELISpot response as percentage of that to tTG-treated gliadin (500 μg/ml) ([3]; n=17, range 0-155%) | bioactivity in vivo of a single dose [4] | T1/2 half life ([1]; adult rat, intradermal bolus injection 0.9 mg in 0.1 ml saline of equimolar mixture) | half-life ([1]; rat, in vivo, intradermal bolus injection, 0.9 mg, adult rat, intradermal bolus injection 0.9 mg in 0.1 ml saline of equimolar mixture, read-out: T1/2 half life) |
| --- | --- | --- | --- | --- | --- | --- | --- | --- | --- | --- |
| NC(=O)CC[C@H](NC(=O)[C@H](Cc1c[nH]c2ccccc12)NC(=O)[C@@H]1CCCN1C(=O)[C@H](Cc1ccccc1)NC(=O)[C@@H]1CCCN1C(=O)[C@H](CCC(N)=O)NC(=O)[C@H](CCC(=O)O)NC(=O)[C@@H]1CCCN1C(=O)[C@H](CCC(N)=O)NC(=O)[C@@H]1CCCN1C(=O)[C@H](Cc1ccccc1)NC(=O)[C@@H]1CCCN1C(=O)[C@H](CCC(N)=O)NC(=O)[C@@H]1CCC(=O)N1)C(=O)N1CCC[C@H]1C(N)=O [NPL002, pyroEQPFPQPEQPFPWQP-amide] ([pGlu]QPFPQPEQPFPWQP-NH2) | AUC 81514 | T1/2 27.18 minutes | 26 to 28 min | abolished the bioactivity | anti-HLA-DQ but not -DR abolished | – | – | – | – | – |
| QLQPFPQPELPYPQPQS (alpha-gliadin p57-73 QE65) [α-gliadin p57-73 QE65] | – | – | – | – | – | less than 5% | 51% | – | – | – |
| CC(C)C[C@H](NC(=O)[C@@H]1CCC(=O)N1)C(=O)N[C@@H](CCC(N)=O)C(=O)N1CCC[C@H]1C(=O)N[C@@H](Cc1ccccc1)C(=O)N1CCC[C@H]1C(=O)N[C@@H](CCC(N)=O)C(=O)N1CCC[C@H]1C(=O)N[C@@H](CCC(=O)O)C(=O)N[C@@H](CC(C)C)C(=O)N1CCC[C@H]1C(=O)N[C@@H](Cc1ccc(O)cc1)C(=O)N1CCC[C@H]1C(=O)N[C@@H](CCC(N)=O)C(=O)N1CCC[C@H]1C(=O)N[C@@H](CCC(N)=O)C(N)=O [NPL001, pyroELQPFPQPELPYPQPQ-amide] ([pGlu]LQPFPQPELPYPQPQ-NH2) | AUC 89350 | – | – | – | – | – | – | bioactive in vivo | T1/2 28.20 minutes | 26 to 28 min |
